The values below come from PMC9570041, “Synthesis of Novel α-Trifluoroanisole Derivatives Containing Phenylpyridine Moieties with Herbicidal Activity” (International Journal of Molecular Sciences, 2022).

Read-outs that look alike come from different tables or passages of the source.

The target of this test is T1, Nicotiana tabacum protoporphyrinogen oxidase (NtPPO) (Nicotiana tabacum, UniProt O24164).
T1 construct: gene PPXII
T1 sequence (O24164 1-504): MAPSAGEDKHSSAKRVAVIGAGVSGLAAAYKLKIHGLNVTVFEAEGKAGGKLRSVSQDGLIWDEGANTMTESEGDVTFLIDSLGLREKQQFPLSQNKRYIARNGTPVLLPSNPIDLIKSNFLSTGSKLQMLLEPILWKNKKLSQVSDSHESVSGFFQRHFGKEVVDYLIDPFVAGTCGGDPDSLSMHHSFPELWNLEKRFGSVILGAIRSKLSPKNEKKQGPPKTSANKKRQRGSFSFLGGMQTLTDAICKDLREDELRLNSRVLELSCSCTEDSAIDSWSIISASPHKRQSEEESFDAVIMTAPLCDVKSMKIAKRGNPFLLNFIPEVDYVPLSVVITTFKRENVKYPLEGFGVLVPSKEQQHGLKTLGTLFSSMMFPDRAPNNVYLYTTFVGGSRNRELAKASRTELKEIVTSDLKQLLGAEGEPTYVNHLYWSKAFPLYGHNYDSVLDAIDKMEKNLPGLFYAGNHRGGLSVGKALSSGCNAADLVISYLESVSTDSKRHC
The experiment in a line: NtPPO inhibition in vitro, protoporphyrin IX formation by absorbance at […] nm. It is filed as biochemical.

With `FC(F)(F)Oc1ccc(COc2ccc(-c3ncc(C(F)(F)F)cc3Cl)cc2)cc1` [7a, 3-Chloro-2-(4-((4-(trifluoromethoxy)benzyl)oxy)phenyl)-5-(trifluoromethyl)pyridine], the IC50 – broadly, the concentration needed to halve the response being measured – was determined as 9.4 ± 2.2 nM.
As to `CS(=O)(=O)NC(=O)c1cc(Oc2ccc(C(F)(F)F)cc2Cl)ccc1[N+](=O)[O-]` [fomesafen], the IC50 (read-out: IC50) came out at 110 ± 1.2 nM.
